Values after ≈ are worked out from the molar mass of the structure shown.
Assay: Cytotoxicity against mouse 9PS cells
Type: functional
Conditions: read-out: ED50 (the source's name)

First: Cc1cc(=O)c2c(O)c3c(c(C(O)C(O)C(C)(C)O)c2o1)OC(C)(C)C=C3 (stereo not drawn)
Second: Cc1cc(=O)c2c(O)c3c(c(CC(O)C(C)(C)O)c2o1)OC(C)(C)C=C3 (stereo not drawn) [SPATHELIABISCHROMEN]
The EC50 of the first is 6-fold lower: 0.5 µg/mL (≈ 1.33 µM) for the first, 3 µg/mL (≈ 8.32 µM) for the second.

Compound `COc1c(/C=C/C(C)(C)O)c2c(c3oc(C)cc(=O)c13)C=CC(C)(C)O2` has an EC50 of 0.3 µg/mL (≈ 0.842 µM).

From ChEMBL document CHEMBL1150706, “Novel chromones from Spathelia sorbifolia” (1987)
